For 1 molecule, IC50 results are on record in patent US20250163072A1, “MACROCYCLIC COMPOUNDS FOR THE TREATMENT OF CANCER” (Hoffmann-La Roche Inc., priority 2021, published 2025).

By IC50 is commonly meant the midpoint of a concentration-inhibition curve.

Molecules are shown by their SMILES.

In one experiment the test system is AGS cells. Briefly: Cell viability assay, AGS. It counts as cell-based, human. Conditions: Homo sapiens, 72 hours, Cell Counting Kit-8, read-out: G12D IC50. The procedure, abridged: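 Cells were plated at 5,000 (NCI-H358) or 2,000 (AGS, SW620) per well and incubated overnight. They were then treated with compound in 0.5% DMSO for 72 h. Viability was read with CCK-8 as OD450 minus OD650 after 2 h, and IC50 came from a 4-parameter sigmoidal fit.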

Experiment [1] has as its target T1, KRAS G12C-BRAF complex (Homo sapiens (Human), UniProt P01116+P62937, G12C). Put plainly: KRAS G12C-BRAF NanoBit assay. The experiment is classed as cell-based. The settings on record: HEK293 cells, SmBit-KRAS G12C and BRAF RBD-LgBit, 3 hours incubation. The procedure, abridged: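 HEK293 stable pool co-expressing SmBiT-KRAS G12C and BRAF RBD-LgBiT, exposed 3 h to compounds (16-point 3-fold dilution, top final 30 μM). Luminescence was read 20 min after Nano-Glo Live Cell substrate addition. A decrease versus DMSO control indicates disruption of the complex.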

The subject of another experiment is KRAS G12D in AGS cells. Briefly: pERK inhibition assay, AGS. The experiment is classed as cell-based, human. The settings on record: Homo sapiens, 4 hours incubation. Summed up: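 NCI-H358, AGS and SW620 cells in RPMI-1640/10% FBS were plated overnight, then exposed to compound (0.5% DMSO final) for 4 h. After fixation and permeabilization, phospho-ERK was quantified by in-cell ELISA (HRP secondary, TMB, OD450); IC50 from a 4-parameter sigmoidal fit.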

The target in experiment [2] is T1, KRAS G12C-BRAF complex. Put plainly: KRAS-BRAF with CYPA (50 nM) interaction assay (TR-FRET), G12C. It counts as binding. The settings on record: GMPPNP loaded 6His-KRAS, GST-BRAF RBD. Summed up: (§1)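 Buffer 25 mM HEPES pH 7.4, 100 mM NaCl, 5 mM MgCl2, 10 μM GMPPNP, 0.1% BSA; final 50 nM tagless CYPA, 6.25 nM GMPPNP-loaded 6His-KRAS mutant, 1 nM GST-BRAF RBD. Compounds 16-point 3-fold series from 10 μM, 3 h; anti-6His-XL665/anti-GST-Tb added, 1.5 h; 665/615 nm ratio decrease versus DMSO.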
(In TR-FRET formats the signal depends on donor and acceptor labels being close together.)

The target in experiment [3] is KRAS G12V binding to BRAF (Homo sapiens (Human), UniProt P01116+P62937, G12V). Put plainly: KRAS-BRAF with CYPA (50 nM) interaction assay (TR-FRET), G12V. The settings on record: GMPPNP loaded 6His-KRAS, GST-BRAF RBD. The procedure, abridged: as §1
Sequence of KRAS G12V binding to BRAF (P01116-2 other isoform, or with tags, fused parts or gaps G12V): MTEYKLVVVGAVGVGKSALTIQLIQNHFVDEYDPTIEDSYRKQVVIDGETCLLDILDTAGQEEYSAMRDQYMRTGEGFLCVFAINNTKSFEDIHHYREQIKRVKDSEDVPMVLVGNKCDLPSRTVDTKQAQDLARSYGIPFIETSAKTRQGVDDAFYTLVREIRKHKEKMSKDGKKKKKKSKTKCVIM
Sequence of KRAS G12V binding to BRAF (P62937 whole entry): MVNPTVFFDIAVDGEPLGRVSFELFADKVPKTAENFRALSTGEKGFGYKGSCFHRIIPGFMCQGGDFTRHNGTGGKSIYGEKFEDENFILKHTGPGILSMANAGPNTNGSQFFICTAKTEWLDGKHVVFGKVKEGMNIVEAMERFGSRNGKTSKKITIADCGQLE

T1 sequence (P01116-2 other isoform, or with tags, fused parts or gaps G12C): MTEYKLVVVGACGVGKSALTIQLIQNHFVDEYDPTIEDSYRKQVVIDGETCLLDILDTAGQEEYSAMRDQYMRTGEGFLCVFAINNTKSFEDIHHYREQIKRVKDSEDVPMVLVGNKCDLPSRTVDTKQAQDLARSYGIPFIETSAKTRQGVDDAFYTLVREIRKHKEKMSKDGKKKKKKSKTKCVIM
T1 sequence (P62937 whole entry): as the sequence (P62937 whole entry) above

On to `CO[C@@H](C)c1ncc(N2CCOCC2)cc1-c1c2c3cc(ccc3n1CC(F)(F)F)-c1csc(n1)C[C@H](NC(=O)[C@H](C(C)C)N(C)C(=O)[C@H]1CCN(C(=O)[C@H](F)Cl)C1)C(=O)N1CCC[C@H](N1)C(=O)OCC(C)(C)C2` (atropisomer, axis not shown; (M)) [Example 25, (3S)-1-[(2R)-2-chloro-2-fluoro-acetyl]-N-[(1S)-1-[[(7S,13S)-(20M)-20-[2-[(1S)-1-methoxyethyl]-5-morpholino-3-pyridyl]-17,17-dimethyl-8,14-dioxo-21-(2,2,2-trifluoroethyl)-15-oxa-4-thia-9,21,27,28-tetrazapentacyclo[17.5.2.12,5.19,13.022,26]octacosa-1(25),2,5(28),19,22(26),23-hexaen-7-yl]carbamoyl]-2-methyl-propyl]-N-methyl-pyrrolidine-3-carboxamide], for which the IC50 in the experiment on AGS cells is 94 nM; against KRAS G12C-BRAF complex [1] it was 20 nM; with KRAS G12D in AGS cells it was 13 nM; against KRAS G12C-BRAF complex [2], 32 nM; in experiment [3] it was over 10000 nM.
